Laboratory results reported in ChEMBL document CHEMBL1151886, “Synthesis and SAR of hydroxyethylamine based phenylcarboxyamides as inhibitors of BACE” (Bioorg Med Chem Lett, 2009).

Tests used:
[1] = molecular target: T1, Beta-secretase 1 (Homo sapiens, UniProt P56817); assay: Inhibition of BACE1 in human HEK293 cells overexpressing APP with Swedish mutation assessed as inhibition of amyloid beta 40 production; type: cell-based
[2] = molecular target: T1, Beta-secretase 1; assay: Binding affinity to BACE assessed as displacement of [3H]BMS-599240; conditions: read-out: IC50

T1 sequence (P56817 whole entry): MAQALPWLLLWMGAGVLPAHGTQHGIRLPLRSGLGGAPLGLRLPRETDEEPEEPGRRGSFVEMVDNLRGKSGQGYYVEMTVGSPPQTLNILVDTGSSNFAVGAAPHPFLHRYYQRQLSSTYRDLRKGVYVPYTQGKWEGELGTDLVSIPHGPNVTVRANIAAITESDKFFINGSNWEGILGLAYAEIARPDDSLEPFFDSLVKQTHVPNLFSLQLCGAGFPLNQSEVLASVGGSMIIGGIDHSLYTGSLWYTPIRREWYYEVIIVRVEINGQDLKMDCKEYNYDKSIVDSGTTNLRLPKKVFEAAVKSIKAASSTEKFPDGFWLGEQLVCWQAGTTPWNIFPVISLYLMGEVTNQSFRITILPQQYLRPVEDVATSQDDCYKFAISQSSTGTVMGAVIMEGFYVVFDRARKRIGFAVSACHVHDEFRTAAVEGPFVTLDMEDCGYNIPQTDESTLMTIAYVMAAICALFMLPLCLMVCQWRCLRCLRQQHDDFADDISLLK

SMILES	IC50 ([1]; read-out: IC50)	IC50 [2]	IC50 ([1]; hek293)
CCCN(CCC)C(=O)c1cc(Oc2ccc(OC)cc2)cc(C(=O)N[C@@H](Cc2cc(F)cc(F)c2)[C@H](O)CNCc2cccc(OC)c2)c1	412 nM	10 nM	
COc1cccc(CNC[C@@H](O)[C@H](Cc2cc(F)cc(F)c2)NC(=O)c2cc(/C(C)=N\O)cc(N(C)S(C)(=O)=O)c2)c1	429 nM	76 nM	
CCCN(CCC)C(=O)c1cc(C(=O)N[C@@H](Cc2cc(F)cc(F)c2)[C@H](O)CNCc2cccc(OC)c2)cc(S(=O)(=O)c2ccc(OC)cc2)c1	392 nM	12 nM	
COc1cccc(CNC[C@@H](O)[C@H](Cc2cc(F)cc(F)c2)NC(=O)c2cc(/C(C)=N\OCc3ccccc3)cc(N3CCCCS3(=O)=O)c2)c1	821 nM	31 nM	
C=CCO/N=C(/C)c1cc(C(=O)N[C@@H](Cc2cc(F)cc(F)c2)[C@H](O)CNCc2cccc(OC)c2)cc(N(c2ccccc2)S(C)(=O)=O)c1	162 nM	27 nM	
COc1cccc(CNC[C@@H](O)[C@H](Cc2cc(F)cc(F)c2)NC(=O)c2cc(C(C)O)cc(N3CCCCS3(=O)=O)c2)c1 (stereo not given in full)	305 nM	43 nM	
CO/N=C(/C)c1cc(C(=O)N[C@@H](Cc2cc(F)cc(F)c2)[C@H](O)CNCc2cccc(OC)c2)cc(N2CCCCS2(=O)=O)c1	345 nM	52 nM	
CCCN(CCC)C(=O)c1cc(C(=O)N[C@@H](Cc2cc(F)cc(F)c2)[C@H](O)CNCc2cccc(OC)c2)cc(/C(C)=N\O)c1	27 nM	3 nM	
CCCN(CCC)C(=O)c1cc(C(C)=O)cc(C(=O)N[C@@H](Cc2cc(F)cc(F)c2)[C@H](O)CNCc2cccc(OC)c2)c1	19 nM	4 nM	
CCCN(CCC)C(=O)c1cc(C(=O)N[C@@H](Cc2cc(F)cc(F)c2)[C@H](O)CNCc2cccc(OC)c2)cc(/C(C)=N\OC)c1	42 nM	1 nM	
CCCO/N=C(/C)c1cc(C(=O)N[C@@H](Cc2cc(F)cc(F)c2)[C@H](O)CNCc2cccc(OC)c2)cc(N(C)S(C)(=O)=O)c1	217 nM	59 nM	
C=CCO/N=C(/C)c1cc(C(=O)N[C@@H](Cc2cc(F)cc(F)c2)[C@H](O)CNCc2cccc(OC)c2)cc(N(C)S(C)(=O)=O)c1	363 nM	151 nM	
COc1cccc(CNC[C@@H](O)[C@H](Cc2cc(F)cc(F)c2)NC(=O)c2cc(/C(C)=N\OCC(C)C)cc(N(C)S(C)(=O)=O)c2)c1	> 666 nM	173 nM	
COc1cccc(CNC[C@@H](O)[C@H](Cc2cc(F)cc(F)c2)NC(=O)c2cc(/C(C)=N/OCC(C)C)cc(N(c3ccccc3)S(C)(=O)=O)c2)c1		242 nM	Not Active
CCCN(CCC)C(=O)c1cc(CCO)cc(C(=O)N[C@@H](Cc2cc(F)cc(F)c2)[C@H](O)CNCc2cccc(OC)c2)c1	53 nM	10 nM	
CCCN(CCC)C(=O)c1cc(C(=O)N[C@@H](Cc2cc(F)cc(F)c2)[C@H](O)CNCc2cccc(OC)c2)cc(/C(C)=N\OCC(C)C)c1	367 nM	55 nM	
CCCN(CCC)C(=O)c1cc(C(=O)N[C@@H](Cc2cc(F)cc(F)c2)[C@H](O)CNCc2cccc(OC)c2)cc(S(=O)(=O)c2ccccc2)c1	148 nM	11 nM	
COc1cccc(CNC[C@@H](O)[C@H](Cc2cc(F)cc(F)c2)NC(=O)c2cc(/C(C)=N\OCc3ccccc3)cc(N(C)S(C)(=O)=O)c2)c1	> 333 nM	9 nM	
CCCN(CCC)C(=O)c1cc(CC(COC)OC)cc(C(=O)N[C@@H](Cc2cc(F)cc(F)c2)[C@H](O)CNCc2cccc(OC)c2)c1 (stereo not given in full)		> 2000 nM	Not Active
COc1cccc(CNC[C@@H](O)[C@H](Cc2cc(F)cc(F)c2)NC(=O)c2cc(/C(C)=N\OCc3ccccc3)cc(N(c3ccccc3)S(C)(=O)=O)c2)c1	88 nM	12 nM	

Continued, in another order:

IC50 ([1]; read-out: IC50)	IC50 [2]	SMILES	IC50 ([1]; hek293)
91 nM	9 nM	COc1cccc(CNC[C@@H](O)[C@H](Cc2cc(F)cc(F)c2)NC(=O)c2cc(/C(C)=N\O)cc(N(c3ccccc3)S(C)(=O)=O)c2)c1	
137 nM	11 nM	COc1cccc(CNC[C@@H](O)[C@H](Cc2cc(F)cc(F)c2)NC(=O)c2cccc(N(c3ccccc3)S(C)(=O)=O)c2)c1	
73 nM	20 nM	COc1cccc(CNC[C@@H](O)[C@H](Cc2cc(F)cc(F)c2)NC(=O)c2cc(C(C)=O)cc(C(=O)N[C@H](C)c3ccccc3)c2)c1	
> 333 nM	13 nM	CCCN(CCC)C(=O)c1cc(Sc2ccccc2)cc(C(=O)N[C@@H](Cc2cc(F)cc(F)c2)[C@H](O)CNCc2cccc(OC)c2)c1	
500 nM	86 nM	C=CCO/N=C(/C)c1cc(C(=O)N[C@@H](Cc2cc(F)cc(F)c2)[C@H](O)CNCc2cccc(OC)c2)cc(C(=O)N[C@H](C)c2ccccc2)c1	
122 nM	43 nM	COc1cccc(CNC[C@@H](O)[C@H](Cc2cc(F)cc(F)c2)NC(=O)c2cc(C(C)O)cc(N(C)S(C)(=O)=O)c2)c1 (stereo not given in full)	
94 nM	22 nM	CCCN(CCC)C(=O)c1cc(Oc2ccc(F)cc2)cc(C(=O)N[C@@H](Cc2cc(F)cc(F)c2)[C@H](O)CNCc2cccc(OC)c2)c1	
> 666 nM	54 nM	CCCN(CCC)C(=O)c1cc(Oc2ccccc2OC)cc(C(=O)N[C@@H](Cc2cc(F)cc(F)c2)[C@H](O)CNCc2cccc(OC)c2)c1	
530 nM	168 nM	C=CCO/N=C(/C)c1cc(C(=O)NC(C)c2ccc(F)cc2)cc(C(=O)N[C@@H](Cc2cc(F)cc(F)c2)[C@H](O)CNCc2cccc(OC)c2)c1 (stereo not given in full)	
559 nM	124 nM	COc1cccc(CNC[C@@H](O)[C@H](Cc2cc(F)cc(F)c2)NC(=O)c2cc(C(C)=O)cc(N(C)S(C)(=O)=O)c2)c1	
80 nM	31 nM	CCCN(CCC)C(=O)c1cccc(C(=O)N[C@@H](Cc2cc(F)cc(F)c2)[C@H](O)CNCc2cccc(OC)c2)c1	
164 nM	37 nM	COc1cccc(CNC[C@@H](O)[C@H](Cc2cc(F)cc(F)c2)NC(=O)c2cc(C(=O)NC(C)c3ccc(F)cc3)cc(C(C)O)c2)c1 (stereo not given in full)	
> 333 nM	10 nM	CCCN(CCC)C(=O)c1cc(Oc2ccccc2)cc(C(=O)N[C@@H](Cc2cc(F)cc(F)c2)[C@H](O)CNCc2cccc(OC)c2)c1	
86 nM	10 nM	CO/N=C(\C)c1cc(C(=O)N[C@@H](Cc2cc(F)cc(F)c2)[C@H](O)CNCc2cccc(OC)c2)cc(N(c2ccccc2)S(C)(=O)=O)c1	
276 nM	24 nM	CO/N=C(/C)c1cc(C(=O)NC(C)c2ccc(F)cc2)cc(C(=O)N[C@@H](Cc2cc(F)cc(F)c2)[C@H](O)CNCc2cccc(OC)c2)c1 (stereo not given in full)	
80 nM	75 nM	COc1cccc(CNC[C@@H](O)[C@H](Cc2cc(F)cc(F)c2)NC(=O)c2cccc(N(C)S(C)(=O)=O)c2)c1	
266 nM	166 nM	COc1cccc(CNC[C@@H](O)[C@H](Cc2cc(F)cc(F)c2)NC(=O)c2cccc(C(=O)NC(C)c3ccc(F)cc3)c2)c1 (stereo not given in full)	
12 nM	2 nM	CCCN(CCC)C(=O)c1cc(C(=O)N[C@@H](Cc2cc(F)cc(F)c2)[C@H](O)CNCc2cccc(OC)c2)cc(C(C)O)c1 (stereo not given in full)	
45 nM	20 nM	CCCN(CCC)C(=O)c1cc(C(=O)N[C@@H](Cc2cc(F)cc(F)c2)[C@H](O)CNCc2cccc(OC)c2)cc(C(C)NC(C)=O)c1 (stereo not given in full)	
92 nM	29 nM	COc1cccc(CNC[C@@H](O)[C@H](Cc2cc(F)cc(F)c2)NC(=O)c2cc(C(=O)N[C@H](C)c3ccccc3)cc(C(C)O)c2)c1 (stereo not given in full)	
